The structures appear in SMILES notation.

For orientation: IC50 means the midpoint of a concentration-inhibition curve.

The target of this assay is hROMK (human Kir1.1) (Homo sapiens (Human), UniProt P48048). The assay is described as follows: Thallium Flux Assay (FluxOR, CHO T-Rex hROMK stable cell line). The format is cell-based. The conditions noted are these: CHO T-Rex hROMK cells, 10-point concentration response curve; read-out: Human ROMK TH Flux IC50.
Chain of hROMK (human Kir1.1) (P48048 whole entry): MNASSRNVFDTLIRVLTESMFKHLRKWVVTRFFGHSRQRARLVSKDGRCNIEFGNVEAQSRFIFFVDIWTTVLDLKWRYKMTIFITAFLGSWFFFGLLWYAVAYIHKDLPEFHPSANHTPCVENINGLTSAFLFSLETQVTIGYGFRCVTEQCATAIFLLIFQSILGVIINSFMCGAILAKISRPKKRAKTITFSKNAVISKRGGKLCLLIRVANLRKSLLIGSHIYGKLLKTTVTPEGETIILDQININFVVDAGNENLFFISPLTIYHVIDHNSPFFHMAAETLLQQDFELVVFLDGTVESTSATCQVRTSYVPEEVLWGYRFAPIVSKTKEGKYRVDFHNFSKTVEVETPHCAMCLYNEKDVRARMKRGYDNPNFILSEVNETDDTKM
Method: Solutions and reagents: Thallium flux assay was performed using FluxOR kit (F10017, Life Technologies). Loading buffer, assay buffer and stimulus buffer were prepared using kit components.
To prepare 10 ml of loading buffer: 10 μl of FluxOR dye (reconstituted in DMSO) was first added to 100 μl of powerload concentrate and this mix along with 100 μl of Probenicid (100×) was then added to 9.79 ml of HBSS. […] Stimulus buffer was composed of 15 mM Tl2SO4, 0.75 mM K2SO4 in FluxOR chloride free buffer (diluted to 1× using deionized water). The final concentration of Tl2SO4 and K2SO4 in the assay plate was 3 mM and 0.15 mM, respectively.
Plating and induction of cells: The CHO T-Rex hROMK (human Kir1.1) stable cell line was maintained in Ham's F12 media supplemented with 10% FBS, 1% Penicillin-Streptomycin, 500 μg/ml Zeocin and 10 μg/ml Blasticidin at 37° C. in a 5% CO2 incubator. […] The cell suspension was centrifuged at 1200 rpm for 5 min. After discarding the supernatant, the cells were resuspended in fresh growth media and cell concentration was determined using a hemocytometer. […] The assay plate was kept at 37° C. in a 5% CO2 incubator.
Assay protocol: On the day of experiment, media was removed and loading buffer was added (30 μl/well) to the assay plate. The cells were incubated in the loading buffer for 30 minutes at 37° C. The loading buffer was then replaced by assay buffer (30 μl/well) followed by addition of test compounds or controls. […] Each well was read for 90 sec at 2 sec interval and the stimulus buffer was added after 20 seconds of baseline recording. The final DMSO concentration was either 0.5 or 1% in the assay plate. Positive and negative controls were defined by addition of DMSO or 3 μM of a standard ROMK inhibitor, respectively, to the wells instead of a test compound.
A 10-point concentration response curve was used to estimate the IC50 value of test compounds.
Consider `CN(Cc1ccc(-c2ccc(C#N)c(F)c2)cc1)Cc1ccc2c(c1)COC2=O` [Example 29, 3-fluoro-4′-((methyl((1-oxo-1,3-dihydroisobenzofuran-5-yl)methyl)amino)methyl)-[1,1′-biphenyl]-4-carbonitrile], for which the IC50 amounted to 3300 nM. The result for `Cc1cc(-n2[nH]cc(CNC[C@H](O)c3ccc4c(c3C)COC4=O)c2=O)ncc1C#N` [Example 36, (R)-6-(4-(((2-hydroxy-2-(4-methyl-1-oxo-1,3-dihydroisobenzofuran-5-yl)ethyl)amino)methyl)-5-oxo-2,5-dihydro-1H-pyrazol-1-yl)-4-methylnicotinonitrile] reads 390 nM.

For the compound `Cc1c([C@@H](O)CNC(C)(C)c2cnn(-c3ccc4oc(=O)n(C)c4c3)c2)ccc2c1COC2=O` [Example 37, (R)-5-(4-(2-((2-hydroxy-2-(4-methyl-1-oxo-1,3-dihydroisobenzofuran-5-yl)ethyl)amino)propan-2-yl)-1H-pyrazol-1-yl)-3-methylbenzo[d]oxazol-2(3H)-one], the IC50 is 930 nM. For `Cc1cc(-n2cc(CCNC(=O)Cc3ccc4c(c3C)COC4=O)cn2)ncc1C#N` [Example 38, N-(2-(1-(5-cyano-4-methylpyridin-2-yl)-1H-pyrazol-4-yl)ethyl)-2-(4-methyl-1-oxo-1,3-dihydroisobenzofuran-5-yl)acetamide], the IC50 is 340 nM. The result for `Cc1cc(-c2cnc(CNC[C@H](O)c3ccc4c(c3C)COC4=O)nc2)ncc1C#N` [Example 40, (R)-6-(2-(((2-hydroxy-2-(4-methyl-1-oxo-1,3-dihydroisobenzofuran-5-yl)ethyl)amino)methyl)pyrimidin-5-yl)-4-methylnicotinonitrile] reads 340 nM; that for `Cc1cc(-c2nc(CNC[C@H](O)c3ccc4c(c3C)COC4=O)n(C)n2)ncc1C#N` [Example 42, (R)-6-(5-(((2-hydroxy-2-(4-methyl-1-oxo-1,3-dihydroisobenzofuran-5-yl)ethyl)amino)methyl)-1-methyl-1H-1,2,4-triazol-3-yl)-4-methylnicotinonitrile], 855 nM; that for `Cc1c([C@H](CNCc2cnn(-c3ccc4oc(=O)n(C)c4c3)c2)OC(=O)[C@H](N)C(C)C)ccc2c1COC2=O` [Example 44, (R)-1-(4-methyl-1-oxo-1,3-dihydroisobenzofuran-5-yl)-2-(((1-(3-methyl-2-oxo-2,3-dihydrobenzo[d]oxazol-5-yl)-1H-pyrazol-4-yl)methyl)amino)ethyl D-valinate], 140 nM. On to `Cc1cn(-c2ccc(CNC[C@H](O)c3ccc4c(c3C)COC4=O)nn2)cn1` [Example 53, (R)-5-(1-hydroxy-2-(((6-(4-methyl-1H-imidazol-1-yl)pyridazin-3-yl)methyl)amino)ethyl)-4-methylisobenzofuran-1(3H)-one], for which the IC50 is 320 nM. For `Cc1cc(-n2nc(C)c(CNC[C@H](O)c3ccc4c(c3C)COC4=O)n2)ncc1C#N` [Example 58, (R)-6-(4-(((2-hydroxy-2-(4-methyl-1-oxo-1,3-dihydroisobenzofuran-5-yl)ethyl)amino)methyl)-5-methyl-2H-1,2,3-triazol-2-yl)-4-methylnicotinonitrile], the IC50 came to 300 nM. The result for `Cc1cc(-n2cc(CNC[C@H](NS(=O)(=O)C3CC3)c3ccc4c(c3C)COC4=O)cn2)ncc1C#N` [Example 62, (R)-N-(2-(((1-(5-cyano-4-methylpyridin-2-yl)-1H-pyrazol-4-yl)methyl)amino)-1-(4-methyl-1-oxo-1,3-dihydroisobenzofuran-5-yl)ethyl)cyclopropanesulfon-amide] reads 390 nM; that for `Cc1cc(-n2cc(CNC[C@H](NC(=O)CO)c3ccc4c(c3C)COC4=O)cn2)ncc1C#N` [Example 63, (R)-N-(2-(((1-(5-cyano-4-methylpyridin-2-yl)-1H-pyrazol-4-yl)methyl)amino)-1-(4-methyl-1-oxo-1,3-dihydroisobenzofuran-5-yl)ethyl)-2-hydroxyacetamide], 130 nM; that for `CN[C@@H](CNCc1cnn(-c2cc(C)c(C#N)cn2)c1)c1ccc2c(c1C)COC2=O` [Example 64, (R)-4-methyl-6-(4-(((2-(4-methyl-1-oxo-1,3-diydroisobenzofuran-5-yl)-2-(methylamino)ethyl)amino)methyl)-1H-pyrazol-1-yl)nicotinonitrile], 430 nM.

Turning to `Cc1cc(-n2cc(CNC[C@@H](c3ccc4c(c3C)COC4=O)N(C)S(C)(=O)=O)cn2)ncc1C#N` [Example 65, (R)-N-(2-(((1-(5-cyano-4-methylpyridin-2-yl)-1H-pyrazol-4-yl)methyl)amino)-1-(4-methyl-1-oxo-1,3-dihydroisobenzofuran-5-yl)ethyl)-N-methylmethanesulfonamide], the IC50 worked out at 38 nM.

For `Cc1cc(-n2cc(CNC[C@@H](c3ccc4c(c3C)COC4=O)N3CCCS3(=O)=O)cn2)ncc1C#N` [Example 66, (R)-6-(4-(((2-(1,1-dioxidoisothiazolidin-2-yl)-2-(4-methyl-1-oxo-1,3-dihydroisobenzofuran-5-yl)ethyl)amino)methyl)-1H-pyrazol-1-yl)-4-methylnicotinonitrile], the IC50 was 260 nM. The result for `Cc1cn(-c2cc(C)c(CNC[C@H](O)c3ccc4c(c3C)COC4=O)cn2)cn1` [Example 76, (R)-5-(1-hydroxy-2-(((4-methyl-6-(4-methyl-1H-imidazol-1-yl)pyridin-3-yl)methyl)amino)ethyl)-4-methylisobenzofuran-1(3H)-one] reads 81 nM; that for `Cc1cn(-c2ccc(CNC[C@H](O)c3ccc4c(c3C)COC4=O)c(C)n2)cn1` [Example 77], 190 nM; that for `Cc1cc(C#N)cnc1-n1cc(CNC[C@H](O)c2ccc3c(c2C)COC3=O)cn1` [Example 78, (R)-6-(4-(((2-hydroxy-2-(4-methyl-1-oxo-1,3-dihydroisobenzofuran-5-yl)ethyl)amino)methyl)-1H-pyrazol-1-yl)-5-methylnicotinonitrile], 440 nM. As for `Cc1c([C@@H](O)CNCc2cnn(-c3ccc4nncn4n3)c2)ccc2c1COC2=O` [Example 79, (R)-5-(2-(((1-([1,2,4]triazolo[4,3-b]pyridazin-6-yl)-1H-pyrazol-4-yl)methyl)amino)-1-hydroxyethyl)-4-methylisobenzofuran-1(3H)-one], the IC50 was found to be 530 nM. The result for `COc1cc(-n2cc(CNC[C@H](O)c3ccc4c(c3C)COC4=O)cn2)ccn1` [Example 80, (R)-5-(1-hydroxy-2-(((1-(2-methoxypyridin-4-yl)-1H-pyrazol-4-yl)methyl)amino)ethyl)-4-methylisobenzofuran-1(3H)-one] reads 530 nM. Regarding `Cc1cc(-n2cc(CN(CC3CCOC3)C[C@H](O)c3ccc4c(c3C)COC4=O)cn2)ncc1C#N` (stereo partly drawn) [Example 85, 6-(4-((((R)-2-hydroxy-2-(4-methyl-1-oxo-1,3-dihydroisobenzofuran-5-yl)ethyl)((tetrahydrofuran-3-yl)methyl)amino)methyl)-1H-pyrazol-1-yl)-4-methylnicotinonitrile], the IC50 was determined as 230 nM. Under `Cc1cc(-c2nc(CNC[C@H](O)c3ccc4c(c3C)COC4=O)cn2C)ncc1C#N` [Example 86, (R)-6-(4-(((2-hydroxy-2-(4-methyl-1-oxo-1,3-dihydroisobenzofuran-5-yl)ethyl)amino)methyl)-1-methyl-1H-imidazol-2-yl)-4-methylnicotinonitrile] stands 430 nM; under `COc1cc(-n2cnc(C)c2)ncc1CNC[C@H](O)c1ccc2c(c1C)COC2=O` [Example 89, (R)-5-(1-hydroxy-2-(((4-methoxy-6-(4-methyl-1H-imidazol-1-yl)pyridin-3-yl)methyl)amino)ethyl)-4-methylisobenzofuran-1(3H)-one], 92 nM. The result for `Cc1ncn(-c2ncc(CNC[C@H](O)c3ccc4c(c3C)COC4=O)cn2)c1C(F)F` [Example 90, (R)-5-(2-(((2-(5-(difluoromethyl)-4-methyl-1H-imidazol-1-yl)pyrimidin-5-yl)methyl)amino)-1-hydroxyethyl)-4-methylisobenzofuran-1(3H)-one] reads 230 nM; that for `Cc1cc(-n2cc(CNC[C@H](O)c3ccc4c(c3C)COC4=O)ccc2=O)ncc1C#N` [Example 99, (R)-5-(((2-hydroxy-2-(4-methyl-1-oxo-1,3-dihydroisobenzofuran-5-yl)ethyl)amino)methyl)-4′-methyl-2-oxo-2H-[1,2′-bipyridine]-5′-carbonitrile], 140 nM.

As to `CCc1nn(-c2ccc(CNC[C@H](O)c3ccc4c(c3C)COC4=O)cn2)cc1C#N` [Example 103, (R)-3-ethyl-1-(5-(((2-hydroxy-2-(4-methyl-1-oxo-1,3-dihydroisobenzofuran-5-yl)ethyl)amino)methyl)pyridin-2-yl)-1H-pyrazole-4-carbonitrile], the IC50 came out at 55.2 nM. With `Cc1c([C@@H](O)CNCc2cnn(-c3cc(N4CCCC4)c(C#N)cn3)c2)ccc2c1COC2=O` [Example 119, (R)-6-(4-(((2-hydroxy-2-(4-methyl-1-oxo-1,3-dihydroisobenzofuran-5-yl)ethyl)amino)methyl)-1H-pyrazol-1-yl)-4-(pyrrolidin-1-yl)nicotinonitrile], the IC50 was 91 nM. Under `Cc1c([C@@H](O)CNCc2cncc(-c3ccc4oc(=O)n(C)c4c3)c2)ccc2c1COC2=O` [Example 120, (R)-5-(5-(((2-hydroxy-2-(4-methyl-1-oxo-1,3-dihydroisobenzofuran-5-yl)ethyl)amino)methyl)pyridin-3-yl)-3-methylbenzo[d]oxazol-2(3H)-one] stands 120 nM. The result for `Cc1c([C@@H](O)CNCc2cnn(-c3ccc4oc(=O)[nH]c4c3)c2)ccc2c1COC2=O` [Example 121, (R)-5-(4-(((2-hydroxy-2-(4-methyl-1-oxo-1,3-dihydroisobenzofuran-5-yl)ethyl)amino)methyl)-1H-pyrazol-1-yl)benzo[d]oxazol-2(3H)-one] reads 160 nM; that for `Cc1c([C@@H](O)CNCc2ccc(-c3ccc(=O)n(C)n3)nc2)ccc2c1COC2=O` [Example 122, (R)-6-(5-(((2-hydroxy-2-(4-methyl-1-oxo-1,3-dihydroisobenzofuran-5-yl)ethyl)amino)methyl)pyridin-2-yl)-2-methylpyridazin-3(2H)-one], 170 nM.
